In PubChem BioAssay AID651557 (The Scripps Research Institute Molecular Screening Center, 2012):
Calls of active or inactive are those of the source.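 Rule for the calls: active = IC50 half-maximal inhibitory concentration at most 10 µM; inactive = IC50 above 10 µM.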

molecular target: Melanocortin receptor 4 (Homo sapiens) (UniProt P32245); test: inhibition of agonist-driven MC4R beta-arrestin coupling – luminescence, biased ligand project, U2OS cells, late-stage follow-up (AID 651557); conditions: U2OS MC4R beta-arrestin recruitment, beta-gal complementation luminescence
Sequence (P32245 whole entry, looked up): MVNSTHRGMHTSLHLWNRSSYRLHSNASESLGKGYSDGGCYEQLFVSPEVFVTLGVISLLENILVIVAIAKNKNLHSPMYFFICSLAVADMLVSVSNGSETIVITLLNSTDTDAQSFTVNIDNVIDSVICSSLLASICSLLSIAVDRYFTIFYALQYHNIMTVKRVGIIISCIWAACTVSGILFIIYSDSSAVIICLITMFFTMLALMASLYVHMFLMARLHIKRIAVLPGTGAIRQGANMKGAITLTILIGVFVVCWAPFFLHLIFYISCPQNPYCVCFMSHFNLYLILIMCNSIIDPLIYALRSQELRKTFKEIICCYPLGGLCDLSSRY

Row | SMILES | IC50
1 | CCC1CCCCN1S(=O)(=O)c1ccc(NC(=O)c2ccccc2)cc1 (configuration not stated) | > 50 µM (inactive)
2 | CNC(=O)c1cc(Oc2ccc(NC(=O)CNc3ccc(Cl)c(C(F)(F)F)c3)cc2)ccn1 | > 50 µM (inactive)
3 | COc1ccccc1C1(CCNC(C)c2cccs2)CCOC(C(C)C)C1 (configuration not stated) | 6.73 µM
4 | O=C1c2cccc3cccc(c23)C(=O)N1CC1CCN(CC(O)COc2ccc3ccccc3c2)CC1 (configuration not stated) | > 50 µM (inactive)
5 | CC1CCCCN1S(=O)(=O)c1ccc(NC(=O)c2nc(S(C)(=O)=O)ncc2Cl)cc1 (configuration not stated) | 3.55 µM
6 | Cc1ccccc1CN1Cc2cnnn2-c2ccccc2C1C#N (configuration not stated) | inactive
7 | CC(=O)c1ccc(Nc2nc3ccc(C(=O)N(CCC(C)C)CCC(C)C)cc3n2CCCN2CCCCC2)cc1 | 0.00232 µM
8 | COc1ccc(N(C(C)=O)C(C(=O)NC2CCCC2)c2cccs2)cc1OC (configuration not stated) | > 50 µM (inactive)
9 | CCC1CCCCN1S(=O)(=O)c1ccc(NC(=O)c2ccnc(SC)n2)cc1 (configuration not stated) | > 50 µM (inactive)
10 | CNC(=O)c1cc(Oc2ccc(NCC(=O)Nc3ccc(Cl)c(C(F)(F)F)c3)cc2)ccn1 | > 50 µM (inactive)
11 | C#CC(=O)N(c1ccc(OC)c(OC)c1)C(C(=O)NC1CCCC1)c1cccs1 (configuration not stated) | inactive
12 | CCC1CCCCN1S(=O)(=O)c1ccc(NC(=O)c2cccc(S(C)(=O)=O)c2)cc1 (configuration not stated) | > 50 µM (inactive)
